Some test systems named below: SNB-19 CNS; HS 578T breast; M14 melanoma; UACC-257 melanoma; LOX IMVI melanoma; HCT-116 colon; MALME-3M melanoma; SK-MEL-5 melanoma.
Common to all, as to test: NCI-60 cell line screen, 48 h

Structures are written as SMILES.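 These data come from cells grown in 96-well plates and exposed to compound for 48 hours at five concentrations. Here, GI50 denotes the concentration required for 50% inhibition of growth. Definition used: TGI = concentration required for complete inhibition of growth.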 Where only a bound is given, the exact number is not on record here.

We go through 14 compounds from PubChem BioAssay (NCI).

Consider `Nc1nn(C(=O)Nc2ccc(Cc3ccccc3)cc2)c2ccccc12`, for which the GI50 is 22.8 µM in the assay on SNB-19 CNS; 17.2 µM in the assay on HS 578T breast; 0.772 µM in the assay with M14 melanoma; 10 µM in the assay on UACC-257 melanoma; 0.477 µM in the assay on LOX IMVI melanoma; 7.03 µM with HCT-116 colon. Also, the GI50 with MALME-3M melanoma is 19.2 µM; in the assay with SK-MEL-5 melanoma, 2.22 µM. The TGI is over 100 µM in the assay with SNB-19 CNS; 71.8 µM with HS 578T breast; over 100 µM with M14 melanoma; 50.9 µM in the assay with UACC-257 melanoma; 16.1 µM with LOX IMVI melanoma; over 100 µM with HCT-116 colon. In addition, the values for the TGI in the assay on MALME-3M melanoma and in the assay with SK-MEL-5 melanoma were 64.1 µM and 8.64 µM, respectively.
In the case of `Cc1ccc(S(=O)(=O)C2=C3C(=C(c4ccccc4)c4ccccc43)CN(S(=O)(=O)c3ccc(C)cc3)C2)cc1`, the GI50 in the assay on SNB-19 CNS was 12.9 µM; with HS 578T breast, 2.57 µM; in the assay on M14 melanoma, 5.63 µM; with UACC-257 melanoma it was 15.8 µM; in the assay with LOX IMVI melanoma, 1.12 µM; with HCT-116 colon it was 2 µM. The GI50 is 9.71 µM with MALME-3M melanoma and 5.04 µM in the assay on SK-MEL-5 melanoma. For the same compound, the TGI was determined as 55.7 µM in the assay with SNB-19 CNS; 39.9 µM in the assay on HS 578T breast; 34.4 µM in the assay with M14 melanoma; 37.4 µM in the assay with UACC-257 melanoma; 2.42 µM in the assay on LOX IMVI melanoma; 7.78 µM in the assay with HCT-116 colon. Besides, the TGI turned out to be 29.2 µM in the assay with MALME-3M melanoma and 18.3 µM in the assay with SK-MEL-5 melanoma.
For the compound `CCN1CCN(Cc2ccc3cc(C(=O)Nc4cc(NC(=O)c5ccc6c(c5)OCCO6)ccc4F)ccc3n2)CC1`, the GI50 with SNB-19 CNS was 0.165 µM; with HS 578T breast, 0.0329 µM; in the assay with M14 melanoma, 0.0505 µM; in the assay with UACC-257 melanoma it was 0.133 µM; in the assay with LOX IMVI melanoma, 0.0343 µM; in the assay with HCT-116 colon it was 0.0354 µM. In addition, the GI50 in the assay with MALME-3M melanoma is 0.0394 µM; with SK-MEL-5 melanoma, 0.108 µM. In addition, the TGI in the assay with SNB-19 CNS amounted to 11.2 µM; with HS 578T breast, 0.308 µM; in the assay with M14 melanoma, 11.8 µM; in the assay with UACC-257 melanoma, 10.5 µM; in the assay on LOX IMVI melanoma, 1.43 µM; in the assay on HCT-116 colon, 13 µM. Further, the TGI turned out to be 0.42 µM in the assay on MALME-3M melanoma and 0.756 µM in the assay with SK-MEL-5 melanoma.
As to `Cc1cccc2c(=O)c3c(sc12)c(NCCN)nc1ccccc13`, the GI50 in the assay with SNB-19 CNS is 0.948 µM; in the assay on HS 578T breast, 1.5 µM; with M14 melanoma, 0.808 µM; with UACC-257 melanoma, 0.966 µM; in the assay on LOX IMVI melanoma, 0.783 µM; with HCT-116 colon, 0.759 µM. Further, the GI50 in the assay with MALME-3M melanoma is 0.841 µM; in the assay with SK-MEL-5 melanoma, 0.953 µM. Besides, the TGI in the assay on SNB-19 CNS was found to be 2.56 µM; in the assay with HS 578T breast, 4.78 µM; in the assay on M14 melanoma, 1.55 µM; in the assay with UACC-257 melanoma, 1.99 µM; in the assay on LOX IMVI melanoma it was 1.48 µM; with HCT-116 colon, 1.43 µM. For the same compound, the TGI in the assay on MALME-3M melanoma turned out to be 1.59 µM; in the assay on SK-MEL-5 melanoma it was 1.94 µM.
Take `O=C1[C@H](c2ccccc2)C2c3ccccc3CCN12` (stereo partly drawn): the GI50 with SNB-19 CNS, with HS 578T breast, in the assay on M14 melanoma, in the assay with UACC-257 melanoma, in the assay with LOX IMVI melanoma and in the assay with HCT-116 colon was over 100 µM throughout. For the same compound, the GI50 in the assay on MALME-3M melanoma and in the assay on SK-MEL-5 melanoma was over 100 µM in each case. Further, the TGI with SNB-19 CNS, in the assay with HS 578T breast, in the assay on M14 melanoma, with UACC-257 melanoma, in the assay with LOX IMVI melanoma and in the assay on HCT-116 colon was over 100 µM throughout. Further, the TGI in the assay with MALME-3M melanoma and in the assay on SK-MEL-5 melanoma was over 100 µM in each case.
On to `CCOC(=O)C1=C(N)Oc2cc(OC)ccc2C1c1ccc(F)c(F)c1` (stereo not drawn), for which the GI50 in the assay on SNB-19 CNS was 1.83 µM; in the assay with HS 578T breast, 2.48 µM; in the assay on M14 melanoma it was 0.483 µM; in the assay on UACC-257 melanoma it was 11.5 µM; in the assay with LOX IMVI melanoma, 1.36 µM; with HCT-116 colon it was 1.25 µM. Further, the GI50 is 10.3 µM with MALME-3M melanoma and 1.68 µM in the assay on SK-MEL-5 melanoma. The TGI with SNB-19 CNS was 17.4 µM; in the assay with HS 578T breast, 21.3 µM; with M14 melanoma, 13.5 µM; in the assay on UACC-257 melanoma, 24 µM; with LOX IMVI melanoma, 19 µM; in the assay on HCT-116 colon, 16.1 µM. Also, the TGI in the assay with MALME-3M melanoma is 24.1 µM; in the assay with SK-MEL-5 melanoma, 12.6 µM.
Turning to `COc1ccc2c(c1)CC[C@@H]1[C@@H]2CC[C@]2(C)c3c(cc(C(=O)c4ccccc4)c4sccc34)C[C@@H]12`, the GI50 is over 100 µM in the assay with SNB-19 CNS; over 100 µM in the assay on HS 578T breast; 75.4 µM with M14 melanoma; over 100 µM with UACC-257 melanoma; over 100 µM with LOX IMVI melanoma; over 100 µM with HCT-116 colon. Besides, the GI50 in the assay with MALME-3M melanoma and in the assay with SK-MEL-5 melanoma was over 100 µM each time. Further, the TGI with SNB-19 CNS, in the assay on HS 578T breast, in the assay with M14 melanoma, in the assay with UACC-257 melanoma, with LOX IMVI melanoma and in the assay with HCT-116 colon was over 100 µM each time. In addition, the TGI in the assay with MALME-3M melanoma and in the assay on SK-MEL-5 melanoma was over 100 µM throughout.
Take `CCOCC[P+](c1ccccc1)(c1ccccc1)c1ccccc1`: the GI50 in the assay on SNB-19 CNS was 21.3 µM; with HS 578T breast, 21.7 µM; in the assay with M14 melanoma it was 26.5 µM; in the assay on UACC-257 melanoma, 6.86 µM; in the assay with LOX IMVI melanoma it was 15.3 µM; in the assay on HCT-116 colon, 14.7 µM. Also, the GI50 is 10.3 µM in the assay with MALME-3M melanoma and 10.1 µM in the assay with SK-MEL-5 melanoma. The TGI is over 100 µM in the assay with SNB-19 CNS; 99.5 µM in the assay with HS 578T breast; over 100 µM in the assay with M14 melanoma; 49.6 µM in the assay on UACC-257 melanoma; 42.3 µM in the assay on LOX IMVI melanoma; over 100 µM in the assay with HCT-116 colon. The TGI in the assay with MALME-3M melanoma turned out to be 61.4 µM; in the assay on SK-MEL-5 melanoma, 25 µM.
`COc1ccc2c(c1)N(CCO)C1=C(C(=O)OC1)C2c1cccc(Br)c1` (stereo not drawn): the GI50 is 0.141 µM with SNB-19 CNS; 0.209 µM in the assay on HS 578T breast; 0.0612 µM in the assay on M14 melanoma; 0.034 µM with UACC-257 melanoma; 0.0814 µM with LOX IMVI melanoma; 0.05 µM in the assay with HCT-116 colon. Besides, the GI50 with MALME-3M melanoma is 0.0536 µM; in the assay with SK-MEL-5 melanoma, 0.0407 µM. Further, the TGI in the assay with SNB-19 CNS is over 100 µM; with HS 578T breast, over 100 µM; in the assay with M14 melanoma, 0.597 µM; in the assay on UACC-257 melanoma, 40.7 µM; with LOX IMVI melanoma, 18.8 µM; in the assay on HCT-116 colon, 2.88 µM. In addition, the TGI with MALME-3M melanoma turned out to be 85.7 µM; with SK-MEL-5 melanoma it was 0.585 µM.
In the case of `Cc1ccc(S(=O)(=O)N2C/C(=C\c3cc(F)cc(F)c3)C(=O)/C(=C/c3cc(F)cc(F)c3)C2)cc1`, the GI50 in the assay with SNB-19 CNS was 0.29 µM; in the assay on HS 578T breast, 0.513 µM; in the assay on M14 melanoma, 0.429 µM; with UACC-257 melanoma, 0.583 µM; with LOX IMVI melanoma it was 0.175 µM; in the assay with HCT-116 colon it was 0.162 µM. Further, the GI50 in the assay with MALME-3M melanoma was 0.256 µM; in the assay on SK-MEL-5 melanoma it was 0.272 µM. Further, the TGI in the assay on SNB-19 CNS is 1.1 µM; with HS 578T breast, over 43.1 µM; with M14 melanoma, 1.72 µM; with UACC-257 melanoma, 2.33 µM; with LOX IMVI melanoma, 0.339 µM; in the assay with HCT-116 colon, 0.513 µM. Also, the TGI with MALME-3M melanoma was determined as 0.647 µM; with SK-MEL-5 melanoma, 0.908 µM.
For `Clc1cccc(Cc2cn3cc(-c4ccccc4)nc3s2)c1`, the GI50 is 8.92 µM in the assay on SNB-19 CNS; 13.4 µM in the assay on HS 578T breast; 0.84 µM with M14 melanoma; 10.3 µM with UACC-257 melanoma; 0.629 µM in the assay on LOX IMVI melanoma; 9.36 µM in the assay with HCT-116 colon. Besides, the values for the GI50 in the assay with MALME-3M melanoma and with SK-MEL-5 melanoma were 21.4 µM and 2.67 µM, respectively. Moreover, the TGI in the assay with SNB-19 CNS, with HS 578T breast, in the assay with M14 melanoma, in the assay with UACC-257 melanoma, in the assay on LOX IMVI melanoma and in the assay with HCT-116 colon was over 100 µM throughout. Further, the TGI in the assay on MALME-3M melanoma and with SK-MEL-5 melanoma was over 100 µM throughout.
As for `CNC(=S)N/N=C(/C)CCC/C(C)=N/NC(=S)NC`, the TGI in the assay on SNB-19 CNS is over 100 µM; in the assay with HS 578T breast, over 100 µM; in the assay with M14 melanoma, over 100 µM; with UACC-257 melanoma, over 100 µM; in the assay on LOX IMVI melanoma, 44.2 µM; with HCT-116 colon, over 100 µM. Also, the TGI with MALME-3M melanoma and in the assay on SK-MEL-5 melanoma was over 100 µM in each case.
Take `COc1ccc2cc(C(=O)/C=C/c3ccccc3OC)ccc2c1`: the GI50 in the assay with SNB-19 CNS is 4.37 µM; in the assay on HS 578T breast it was 4.18 µM; with M14 melanoma, 4.34 µM; with UACC-257 melanoma, 9.78 µM; in the assay with LOX IMVI melanoma, 0.863 µM; in the assay with HCT-116 colon, 1.4 µM. Also, the results for the GI50 in the assay on MALME-3M melanoma and with SK-MEL-5 melanoma were 8.32 µM and 2.75 µM, respectively. The TGI in the assay with SNB-19 CNS was over 51.4 µM; in the assay on HS 578T breast it was 98.9 µM; in the assay on M14 melanoma, 25.6 µM; in the assay on UACC-257 melanoma it was 27.9 µM; in the assay on LOX IMVI melanoma, 3.89 µM; in the assay on HCT-116 colon, 6.5 µM. Also, the TGI with MALME-3M melanoma is 67.2 µM; in the assay with SK-MEL-5 melanoma it was 15.9 µM.
For `O=C(O)C#Cc1ccc([N+](=O)[O-])cc1`, the TGI with SNB-19 CNS, in the assay on HS 578T breast, in the assay with M14 melanoma, with UACC-257 melanoma, in the assay with LOX IMVI melanoma and in the assay with HCT-116 colon was over 100 µM each time. Also, the TGI with MALME-3M melanoma and with SK-MEL-5 melanoma was over 100 µM each time.
